Earlier results, collected in patent US7364877B2, “Polynucleotides encoding disorazole polyketide synthase polypeptides” (Kosan Biosciences, Inc., priority 2002, dated 2008).

Experiments:
[1] = tested on: filamentous fungi belonging to the Ascomycetes, Basidiomycetes, Zygomycetes, Oomycetes, and Deuteromycetes families; conditions: including filamentous fungi
mammalian cell = conditions: mammalian cells

For C/C=C/[C@H](O)C(C)(C)[C@@H]1C\C=C/C=C\C=C\[C@H](OC)Cc2nc(co2)C(=O)O[C@H](C(C)(C)[C@@H](O)/C=C/C)C/C=C\[C@H]2O[C@H]2/C=C/C=C\c2nc(co2)C(=O)O1 [Disorazole A, disorazole A], the activity against yeast (yeast) is given as “not highly active”, the “activity against different fungi (MIC)” value [1] is given as 100 to 1000 ng/mL and the “mammalian cell cytotoxic activity (MIC)” value (mammalian cell) is given as 0.003 to 0.03 ng/mL. The activity against bacteria (bacteria) was “not highly active”.
